Columns and labels:
[1] = Foam image and size distribution of the gas bubbles; assay type: physicochemical; conditions: 1 Gew.% in Wasser
Experimental: Schaumbild und Größenverteilung der Gasbläschen nach 0 min. (Abb. 2 und 3) und nach 10 min. (Abb. 4 und 5) von Lac-EG-C12 in einer Gesamtkonzentration von 1 Gew.%. in Wasser. Man erkennt, daß der Schaum zu Beginn fast ausschließlich aus Bläschen mit einer Porengröße von unter 10000 µm^2 besteht. Nach 10 min. wird die Größenverteilung etwas flacher, wobei immer noch rund ein Viertel der Bläschen eine Größe von unter 10000 µm^2 aufweist.

[2] = Foaming capacity and foam stability of aqueous solutions in 100 mL measuring cylinders; assay type: physicochemical; conditions: 50°C; immediate volume and 30 min. volume
Experimental: Messungen werden in 100 mL Meßzylindern durchgeführt. Vor Benutzung wird der Meßzylinder mit konzentrierter Nitriersäure gefüllt und 24 Stunden gelagert, danach mit bidestilliertem Wasser für weitere 24 Stunden. Lösungen werden durch Einwaage des Lipids und Zugabe von bidestilliertem Wasser bis zu einem Gesamtgewicht von 10 g (ca. 10 mL) hergestellt. Lösungen der jeweils niedrigeren Konzentration werden durch Verdünnung der ersten hergestellt. Vor der Messung wird der Meßzylinder bei der gewünschten Temperatur gelagert. Zur Schaumbildung wird der Meßzylinder 20 mal innerhalb von 30 Sekunden umgeschwenkt. Die Messung wird bis zu einer Abweichung von nicht mehr als 5 % wiederholt. Schaumvolumina werden direkt nach dem Schwenken des Zylinders (Schäumungsvermögen) und nach 30 Minuten (Schaumstabilität) bestimmt. '

[3] = Gel formation in water: phase transition temperature (Tgel) from gel to isotropic solution; assay type: physicochemical
[4] = Foam behaviour on hair / in the hand; conditions: 1 Gew% in Wasser, with hair strands, rubbed in the hand; single component
From the text: Hier zeigte sich erstaunlicherweise das die erfindungsgemäßen Verbindungen eine vergleichbare Schaumbildung auf der Haut oder dem Haar wie z.B. Laurylethersulfat zeigen, jedoch in deutlich niedrigeren Einsatzkonzentrationen. Aus den Daten für Lac-EG-C12 (Tab. 10) war nicht unbedingt zu erwarten, dass es sich in Wasser beim Verreiben des Tensids in der Hand um einen guten Schaumbildner handelt. Auch in Gegenwart von Haaren wird beim Verreiben des Tensids eine Schaumbildung beobachtet. Dazu wurde 1 Gew% der erfindungsgemäßen Substanz in Wasser in Gegenwart von Haarsträhnen gelöst und in der Hand verrieben. Der Schaum ist wesentlich feinporiger als vergleichbare Schäume von Laurylethersulfat. […] Lac-Laureth-3.

[5] = Gel formation in dimethyl sulfoxide (DMSO) / water mixtures; assay type: physicochemical; parameters: key: G=Gel; Gp = Teilweise geliert; I = Isotrope Lösung; S = Fest beim Abkühlen (bedingt durch gefrorenes Lösungsmittel); conditions: 0.1 Gew.%
Experimental: Tabelle 2: Phasenumwandlungstemperaturen (Tgel) vom Gel zur isotropen Lösung für unterschiedliche Lösungsmittelzusammensetzung (Dimethylsulfoxid, DMSO und Wasser, H2O) bei gleichbleibender Lipidkonzentration (0.1 Gew.%) (Abweichung ± 0.5 °C). Die Verbindung formt klare Gele oder geliert nur teilweise, oberhalb der Übergangstemperatur bildet sie eine klare Lösung. Tgel ist definiert als die Temperatur bei der das Gel sich beginnt aufzulösen. Die Temperaturspanne des Übergangs beträgt im Normalfall 2 bis 5 °C.

[6] = Gel formation in water: phase transition temperature (Tgel) from gel to isotropic solution; assay type: physicochemical; conditions: for Übergangstemperatur: 0.1 Gew.%, gel up to this temperature, liquid above
Experimental: Tabelle 1: Phasenumwandlungstemperaturen (Tgel) vom Gel zur isotropen Lösung für unterschiedliche Konzentrationen an Lipid (Abweichung ± 0.5 °C). Die Verbindung bildet ein stabiles Gel und oberhalb von Tgel eine klare Lösung. Tgel ist definiert als die Temperatur bei der das Gel sich beginnt aufzulösen. Die Temperaturspanne des Übergangs beträgt im Normalfall 2 bis 5 °C.

SMILES: CCCCCCCCCCCCOCCO[C@@H]1O[C@H](CO)[C@@H](O[C@@H]2O[C@H](CO)[C@H](O)[C@H](O)[C@H]2O)[C@H](O)[C@H]1O [Lac-EG-C12, (2'-Dodecyloxyethyl) 4-O-(β-D-galactopyranosyl)-β-D-glucopyranosid]
- Porengröße der Bläschen ([1]; 0 min., almost all bubbles): < 10000 µm^2
- Anteil der Bläschen mit einer Größe von unter 10000 µm^2 ([1]; nach 10 min.): ein Viertel
- Schaumbildner (comparison with SLES) [2]: wesentlich bessere Schaumbildner als Natriumlauryethersulfat (SLES)
- Gelbildung ([3]; 11 Gew.% Laurylethersulfat to 4 Gew.% of the β-anomer): Gelbildung aber wieder einsetzt
- Gelbildung ([3]; mixture of 13 Gew% Laurylethersulfat with 2 Gew.% of the β-anomer): kein Gel mehr bildet
- Anteil an α-Anomer, ab dem die Gelbildung durch das β-Anomer aufgehoben wird ([3]; mixture of α- and β-anomer): > 80 Gew.%
- Schaumbildung auf Haar / in der Hand [4]: bester Schaumbildner
- Gelbildungsverhalten ([5]; H2O /DMSO 1:9, 4 °C): I
- Gelbildungsverhalten ([5]; H2O /DMSO 1:9, 20 °C): I
- Gelbildungsverhalten ([5]; H2O /DMSO 1:9, -27 °C): S
- Gelbildungsverhalten ([5]; H2O /DMSO 2:8, 4 °C): I
- Gelbildungsverhalten ([5]; H2O /DMSO 2:8, 20 °C): I
- Gelbildungsverhalten ([5]; H2O /DMSO 2:8, -27 °C): S
- Gelbildungsverhalten ([5]; H2O /DMSO 3:7, 4 °C): Gp
- Gelbildungsverhalten ([5]; H2O /DMSO 3:7, 20 °C): I
- Gelbildungsverhalten ([5]; H2O /DMSO 3:7, -27 °C): S
- Gelbildungsverhalten ([5]; H2O /DMSO 4:6, 4 °C): G
- Gelbildungsverhalten ([5]; H2O /DMSO 4:6, 20 °C): G
- Gelbildungsverhalten ([5]; H2O /DMSO 4:6, 39 °C): Gp
- Gelbildungsverhalten ([5]; H2O /DMSO 4:6, 50 °C): I
- Gelbildungsverhalten ([5]; H2O /DMSO 4:6, -27 °C): S
- Gelbildungsverhalten ([5]; H2O /DMSO 5:5, 4 °C): G
- Gelbildungsverhalten ([5]; H2O /DMSO 5:5, 20 °C): G
- Gelbildungsverhalten ([5]; H2O /DMSO 5:5, 39 °C): G
- Gelbildungsverhalten ([5]; H2O /DMSO 5:5, 50 °C): I
- Gelbildungsverhalten ([5]; H2O /DMSO 5:5, -27 °C): G
- Gelbildungsverhalten ([5]; H2O /DMSO 6:4, 4 °C): G
- Gelbildungsverhalten ([5]; H2O /DMSO 6:4, 20 °C): G
- Gelbildungsverhalten ([5]; H2O /DMSO 6:4, 39 °C): G
- Gelbildungsverhalten ([5]; H2O /DMSO 6:4, 50 °C): I
- Gelbildungsverhalten ([5]; H2O /DMSO 6:4, -27 °C): S
- Gelbildungsverhalten ([5]; H2O /DMSO 7:3, 4 °C): G
- Gelbildungsverhalten ([5]; H2O /DMSO 7:3, 20 °C): G
- Gelbildungsverhalten ([5]; H2O /DMSO 7:3, 39 °C): G
- Gelbildungsverhalten ([5]; H2O /DMSO 7:3, 50 °C): I
- Gelbildungsverhalten ([5]; H2O /DMSO 7:3, -27 °C): S
- Gelbildungsverhalten ([5]; H2O /DMSO 8:2, 4 °C): G
- Gelbildungsverhalten ([5]; H2O /DMSO 8:2, 20 °C): G
- Gelbildungsverhalten ([5]; H2O /DMSO 8:2, 39 °C): G
- Gelbildungsverhalten ([5]; H2O /DMSO 8:2, 50 °C): I
- Gelbildungsverhalten ([5]; H2O /DMSO 8:2, -27 °C): S
- Gelbildungsverhalten ([5]; H2O /DMSO 9:1, 4 °C): G
- Gelbildungsverhalten ([5]; H2O /DMSO 9:1, 20 °C): G
- Gelbildungsverhalten ([5]; H2O /DMSO 9:1, 39 °C): G
- Gelbildungsverhalten ([5]; H2O /DMSO 9:1, 50 °C): I
- Gelbildungsverhalten ([5]; H2O /DMSO 9:1, -27 °C): S
- Tgel ([6]; 0.03 Gew.% (0.60 mM) in water): 10 °C
- Tgel ([6]; 0.04 Gew.% (0.72 mM) in water): 21 °C
- Tgel ([6]; 0.05 Gew.% (0.90 mM) in water): 30 °C
- Tgel ([6]; 0.06 Gew.% (1.03 mM) in water): 35 °C
- Tgel ([6]; 0.07 Gew.% (1.20 mM) in water): 38 °C
- Tgel ([6]; 0.08 Gew.% (1.44 mM) in water): 40 °C
- Tgel ([6]; 0.1 Gew.% (1.80 mM) in water): 43 °C
- Übergangstemperatur [6]: 43 °C
- Tgel ([6]; 0.13 Gew.% (2.41 mM) in water): 45 °C
- Tgel ([6]; 0.2 Gew.% (3.61 mM) in water): 46 °C
- Tgel ([6]; 0.5 Gew.% (9.02 mM) in water): 48 °C
- Tgel ([6]; 1 Gew.% (18.04 mM) in water): 50 °C
- Tgel ([6]; 5 Gew.% (90.20 mM) in water): 51 °C
- Tgel ([6]; 10 Gew.% (180.40 mM) in water): 51 °C

SMILES: CCCCCCCCCCCCOC(C)CO[C@@H]1O[C@H](CO)[C@@H](O[C@@H]2O[C@H](CO)[C@H](O)[C@H](O)[C@H]2O)[C@H](O)[C@H]1O (stereo partly drawn) [Lac-PG-C12, (2'-Dodecyloxypropyl) 4-0-(β-D-galactopyranosyl)-β-D-glucopyranosid]
- Übergangstemperatur [6]: 41 °C

SMILES: CCCCCCCCCCCCOCCO[C@H]1O[C@H](CO)[C@@H](O[C@@H]2O[C@H](CO)[C@H](O)[C@H](O)[C@H]2O)[C@H](O)[C@H]1O [Lac-α-EG-C12, (2'-Dodecyloxyethyl) 4-O-(β-D-galactopyranosyl)-α-D-glucopyranosid]
- Gelbildung ([6]; in water): kein Gel bildet

SMILES: CCCCCCCCCCCCOCCO[C@@H]1O[C@H](CO)[C@@H](O[C@H]2O[C@H](CO)[C@@H](O)[C@H](O)[C@H]2O)[C@H](O)[C@H]1O [Mal-EG-C12, (2'-Dodecyloxyethyl) 4-O-(α-D-glucopyranosyl)-β-D-glucopyranosid]
- Schaumbildner (comparison with SLES) [2]: wesentlich bessere Schaumbildner als Natriumlauryethersulfat (SLES)

SMILES: CCCCCCCCCCCCOCCO[C@@H]1O[C@H](CO[C@H]2O[C@H](CO)[C@H](O)[C@H](O)[C@H]2O)[C@@H](O)[C@H](O)[C@H]1O [Mel-EG-C12, (2'-Dodecyloxyethyl) 6-O-(α-D-galactopyranosyl)-β-D-glucopyranosid]
- Schaumbildner (comparison with SLES) [2]: wesentlich bessere Schaumbildner als Natriumlauryethersulfat (SLES)
